# Test results as given in patent US20210395239A1 (Hoffmann-La Roche Inc., priority 2018, published 2021).
# Molecular target: T1, hTLR9 (Homo sapiens, UniProt Q9NR96)
# T1 sequence (Q9NR96 26-1032): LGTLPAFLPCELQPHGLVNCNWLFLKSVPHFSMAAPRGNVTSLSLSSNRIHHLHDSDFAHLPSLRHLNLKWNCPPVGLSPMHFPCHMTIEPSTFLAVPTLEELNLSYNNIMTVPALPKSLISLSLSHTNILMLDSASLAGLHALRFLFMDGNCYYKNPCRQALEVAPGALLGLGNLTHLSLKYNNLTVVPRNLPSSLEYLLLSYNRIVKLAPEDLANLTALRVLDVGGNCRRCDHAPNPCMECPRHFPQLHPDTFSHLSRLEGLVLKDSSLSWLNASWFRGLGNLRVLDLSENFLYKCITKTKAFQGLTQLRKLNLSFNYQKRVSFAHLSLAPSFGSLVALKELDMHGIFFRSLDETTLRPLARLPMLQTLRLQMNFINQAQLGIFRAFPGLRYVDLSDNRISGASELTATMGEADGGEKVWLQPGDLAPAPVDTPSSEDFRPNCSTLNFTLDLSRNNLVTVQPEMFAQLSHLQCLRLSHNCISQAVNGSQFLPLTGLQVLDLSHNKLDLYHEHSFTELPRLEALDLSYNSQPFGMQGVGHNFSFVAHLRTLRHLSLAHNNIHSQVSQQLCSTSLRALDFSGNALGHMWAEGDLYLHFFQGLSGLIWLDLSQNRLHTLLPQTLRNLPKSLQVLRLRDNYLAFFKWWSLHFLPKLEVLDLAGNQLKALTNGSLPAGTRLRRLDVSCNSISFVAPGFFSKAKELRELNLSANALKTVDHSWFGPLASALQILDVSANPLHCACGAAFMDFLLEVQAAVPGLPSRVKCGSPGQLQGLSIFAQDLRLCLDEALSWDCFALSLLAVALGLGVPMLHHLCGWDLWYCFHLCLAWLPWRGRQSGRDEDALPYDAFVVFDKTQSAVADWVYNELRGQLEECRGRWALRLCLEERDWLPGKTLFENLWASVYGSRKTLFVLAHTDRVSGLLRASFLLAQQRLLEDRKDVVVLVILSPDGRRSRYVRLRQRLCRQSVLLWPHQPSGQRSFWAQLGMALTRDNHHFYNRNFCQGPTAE
# Test: HEK293-Blue-hTLR-9 cells assay (SEAP reporter, ODN2006 stimulation)
# Format: cell-based
# Parameters: host or cells: HEK293 (HEK-Blue hTLR9)
# Conditions: HEK293-Blue-hTLR9 cells, ODN2006, 20 hrs; read-out: HEK/hTLR9 IC50
# Excerpt: HEK293-Blue-hTLR-9 Cells Assay:
# A stable HEK293-Blue-hTLR-9 cell line was purchased from InvivoGen (Cat. #: hkb-htlr9, San Diego, Calif., USA). These cells were originally designed for studying the stimulation of human TLR9 by monitoring the activation of NF-κB. A SEAP (secreted embryonic alkaline phosphatase) reporter gene was placed under the control of the IFN-β minimal promoter fused to five NF-κB and AP-1-binding sites. The SEAP was induced by activating NF-κB and AP-1 via stimulating HEK-Blue hTLR9 cells with TLR9 ligands. Therefore the reporter expression was declined by TLR9 antagonist under the stimulation of a ligand, such as ODN2006 (Cat. #: tlrl-2006-1, Invivogen, San Diego, Calif., USA), for incubation of 20 hrs. The cell culture supernatant SEAP reporter activity was determined using QUANTI-Blue™ kit (Cat. #: rep-qb1, Invivogen, San Diego, Calif., USA) at a wavelength of 640 nm, a detection medium that turns purple or blue in the presence of alkaline phosphatase.
# HEK293-Blue-hTLR9 cells were incubated at a density of 250,000˜450,000 cells/mL in a volume of 170 μL in a 96-well plate in Dulbecco's Modified Eagle's medium (DMEM) containing 4.5 g/L glucose, 50 U/mL penicillin, […], 2 mM L-glutamine, 10% (v/v) heat-inactivated fetal bovine serum with addition of 20 μL test compound in a serial dilution in the presence of final DMSO at 1% and 10 μL of 20 uM ODN2006 in above DMEM, perform incubation under 37° C. in a CO2 incubator for 20 hrs. Then 20 μL of the supernatant from each well was incubated with 180 μL Quanti-blue substrate solution at 37° C. for 2 h and the absorbance was read at 620-655 nm using a spectrophotometer. The signaling pathway that TLR9 activation leads to downstream NF-κB activation has been widely accepted, and therefore similar reporter assay was modified for evaluating TLR9 antagonist.
row,SMILES,IC50 [nM]
1,"CO[C@H]1CN(c2nc(C)cc(N3CCN(C[C@H]4CN(c5ccc(C#N)c6nccnc56)C[C@@H](C)O4)CC3)n2)C[C@@H]1N [Example 106, 8-[(2S,6R)-2-[[4-[2-[(3S,4S)-3-amino-4-methoxy-pyrrolidin-1-yl]-6-methyl-pyrimidin-4-yl]piperazin-1-yl]methyl]-6-methyl-morpholin-4-yl]quinoxaline-5-carbonitrile]",46
2,"C[C@@H]1CN(c2ccc(C#N)c3nccnc23)C[C@H](CN2CCN(c3ccnc(N4C[C@H](N)[C@@H](F)C4)n3)CC2)O1 [Example 107, 8-[(2S,6R)-2-[[4-[2-[(3S,4S)-3-amino-4-fluoro-pyrrolidin-1-yl]pyrimidin-4-yl]piperazin-1-yl]methyl]-6-methyl-morpholin-4-yl]quinoxaline-5-carbonitrile]",80
3,"C[C@@H]1CN(c2ccc(C#N)c3nccnc23)C[C@H](CN2CCN(c3ccnc(N4C[C@@H](N)[C@@H](F)C4)n3)CC2)O1 [Example 108, 8-[(2S,6R)-2-[[4-[2-[(3R,4S)-3-amino-4-fluoro-pyrrolidin-1-yl]pyrimidin-4-yl]piperazin-1-yl]methyl]-6-methyl-morpholin-4-yl]quinoxaline-5-carbonitrile]",68
4,"COC1CCN(c2nccc(N3CCN(C[C@H]4CN(c5ccc(C#N)c6ncccc56)C[C@@H](C)O4)CC3)n2)CC1N (stereo partly drawn) [Example 109, 5-[(2S,6R)-2-[[4-[2-(3-amino-4-methoxy-1-piperidyl)pyrimidin-4-yl]piperazin-1-yl]methyl]-6-methyl-morpholin-4-yl]quinoline-8-carbonitrile]",46
5,"C[C@@H]1CN(c2ccc(C#N)c3ncccc23)C[C@H](CN2CCN(c3ccnc(N4C[C@H](N)[C@@H](F)C4)n3)CC2)O1 [Example 110, 5-[(2S,6R)-2-[[4-[2-[(3S,4S)-3-amino-4-fluoro-pyrrolidin-1-yl]pyrimidin-4-yl]piperazin-1-yl]methyl]-6-methyl-morpholin-4-yl]quinoline-8-carbonitrile]",68
6,"Cc1cc(N2CCN(C[C@H]3CN(c4ccc(C#N)c5nccnc45)C[C@@H](C)O3)CC2)nc(N2CC(N)C2)n1 [Example 112, 8-[(2S,6R)-2-[[4-[2-(3-aminoazetidin-1-yl)-6-methyl-pyrimidin-4-yl]piperazin-1-yl]methyl]-6-methyl-morpholin-4-yl]quinoxaline-5-carbonitrile]",65
7,"C[C@@H]1CN(c2ccc(C#N)c3nccnc23)C[C@H](CN2CCN(c3ccnc(N4CC[C@@H](N)[C@H](F)C4)n3)CC2)O1 [Example 113, 8-[(2S,6R)-2-[[4-[2-[(3R,4R)-4-amino-3-fluoro-1-piperidyl]pyrimidin-4-yl]piperazin-1-yl]methyl]-6-methyl-morpholin-4-yl]quinoxaline-5-carbonitrile]",98
8,"Cc1cc(N2CCNCC2)nc(N2CCN(C[C@H]3CN(c4ccc(C#N)c5nccnc45)C[C@@H](C)O3)CC2)n1 [Example 114, 8-[(2R,6S)-2-methyl-6-[[4-(4-methyl-6-piperazin-1-yl-pyrimidin-2-yl)piperazin-1-yl]methyl]morpholin-4-yl]quinoxaline-5-carbonitrile]",62
9,"Cc1ccc(N2C[C@H](CN3CCN(c4nccc(N5CCNCC5)n4)CC3)O[C@H](C)C2)c2nccnc12 [Example 116, (2R,6S)-2-methyl-4-(8-methylquinoxalin-5-yl)-6-[[4-(4-piperazin-1-ylpyrimidin-2-yl)piperazin-1-yl]methyl]morpholine]",89
10,"Cc1ccc(N2C[C@H](CN3CCN(c4ccnc(N5CCNCC5)n4)CC3)O[C@H](C)C2)c2nccnc12 [Example 117, (2R,6S)-2-methyl-4-(8-methylquinoxalin-5-yl)-6-[[4-(2-piperazin-1-ylpyrimidin-4-yl)piperazin-1-yl]methyl]morpholine]",109
11,"C[C@@H]1CN(c2ccc(C#N)c3nccnc23)C[C@H](CN2CCN(c3nccc(N4CC(N)C4)n3)CC2)O1 [Example 118, 8-[(2S,6R)-2-[[4-[4-(3-aminoazetidin-1-yl)pyrimidin-2-yl]piperazin-1-yl]methyl]-6-methyl-morpholin-4-yl]quinoxaline-5-carbonitrile]",51
12,"C[C@@H]1CN(c2ccc(C#N)c3nccnc23)C[C@H](CN2CCN(c3nccc(N4C[C@@H](N)[C@H](F)C4)n3)CC2)O1 [Example 119, 8-[(2S,6R)-2-[[4-[4-[(3R,4R)-3-amino-4-fluoro-pyrrolidin-1-yl]pyrimidin-2-yl]piperazin-1-yl]methyl]-6-methyl-morpholin-4-yl]quinoxaline-5-carbonitrile]",94

# The next molecules have a lower IC50 than those just listed; values first:
row,IC50 [nM],SMILES
1,37,"C[C@@H]1CN(c2ccc(C#N)c3nccnc23)C[C@H](CN2CCN(c3ccnc(N4CC[C@H](N)[C@H](F)C4)n3)CC2)O1 [Example 111, 8-[(2S,6R)-2-[[4-[2-[(3R,4S)-4-amino-3-fluoro-1-piperidyl]pyrimidin-4-yl]piperazin-1-yl]methyl]-6-methyl-morpholin-4-yl]quinoxaline-5-carbonitrile]"
2,38,"Cc1cc(N2C[C@@H](N)[C@@H](F)C2)nc(N2CCN(C[C@H]3CN(c4ccc(C#N)c5nccnc45)C[C@@H](C)O3)CC2)n1 [Example 115, 8-[(2S,6R)-2-[[4-[4-[(3R,4S)-3-amino-4-fluoro-pyrrolidin-1-yl]-6-methyl-pyrimidin-2-yl]piperazin-1-yl]methyl]-6-methyl-morpholin-4-yl]quinoxaline-5-carbonitrile]"
3,31,"CO[C@@H]1CN(c2cc(C)nc(N3CCN(C[C@H]4CN(c5ccc(C#N)c6nccnc56)C[C@@H](C)O4)CC3)n2)C[C@@H]1N [Example 120, 8-[(2S,6R)-2-[[4-[4-[(3S,4R)-3-amino-4-methoxy-pyrrolidin-1-yl]-6-methyl-pyrimidin-2-yl]piperazin-1-yl]methyl]-6-methyl-morpholin-4-yl]quinoxaline-5-carbonitrile]"
4,44,"CO[C@@H]1CN(c2cc(C)nc(N3CCN(C[C@H]4CN(c5ccc(C#N)c6nccnc56)C[C@@H](C)O4)CC3)n2)C[C@H]1N [Example 121, 8-[(2S,6R)-2-[[4-[4-[(3R,4R)-3-amino-4-methoxy-pyrrolidin-1-yl]-6-methyl-pyrimidin-2-yl]piperazin-1-yl]methyl]-6-methyl-morpholin-4-yl]quinoxaline-5-carbonitrile]"
5,31,"CO[C@H]1CN(c2cc(C)nc(N3CCN(C[C@H]4CN(c5ccc(C#N)c6nccnc56)C[C@@H](C)O4)CC3)n2)C[C@H]1N [Example 122, 8-[(2S,6R)-2-[[4-[4-[(3R,4S)-3-amino-4-methoxy-pyrrolidin-1-yl]-6-methyl-pyrimidin-2-yl]piperazin-1-yl]methyl]-6-methyl-morpholin-4-yl]quinoxaline-5-carbonitrile]"
6,31,"Cc1cc(N2CC(N)C2)nc(N2CCN(C[C@H]3CN(c4ccc(C#N)c5nccnc45)C[C@@H](C)O3)CC2)n1 [Example 123, 8-[(2S,6R)-2-[[4-[4-(3-aminoazetidin-1-yl)-6-methyl-pyrimidin-2-yl]piperazin-1-yl]methyl]-6-methyl-morpholin-4-yl]quinoxaline-5-carbonitrile]"
